{"source": "paper PMC7924852", "about": "“The Emericellipsins A–E from an Alkalophilic Fungus Emericellopsis alkalina Show Potent Activity against Multidrug-Resistant Pathogenic Fungi” (Journal of Fungi, 2021)", "key": {"[1]": {"tested_on": "Aspergillus niger ATCC 16404", "test": "Disc-diffusion antifungal assay", "assay_type": "cell-based", "details": "40 µg/disc; A. niger ATCC 16404"}, "A. terreus 3 K [2]": {"tested_on": "A. terreus 3 K", "test": "Disc-diffusion antifungal assay", "assay_type": "cell-based", "details": "40 µg/disc"}, "A. terreus 497 [3]": {"tested_on": "A. terreus 497", "test": "Disc-diffusion antifungal assay", "assay_type": "cell-based", "details": "40 µg/disc; A. terreus 497, pathogenic clinical isolate"}, "[4]": {"tested_on": "clinical isolates of Candida", "test": "Disc-diffusion antifungal assay, clinical yeast isolates", "assay_type": "cell-based", "details": "range over clinical isolates of Candida (Figure S2)"}, "[5]": {"tested_on": "reference and clinical strains of Aspergillus", "test": "Disc-diffusion antifungal assay, Aspergillus strains", "assay_type": "cell-based", "details": "range over clinical isolates of Aspergillus (Figure S2)"}, "A. niger ATCC 16404": {"tested_on": "A. niger ATCC 16404", "test": "Broth two-fold microdilution MIC (CLSI)", "assay_type": "cell-based, Aspergillus niger", "details": "A. niger ATCC 16404; RPMI 1640 pH 7.0, 35 °C, 48 h, no visible growth"}, "A. niger 1133 m": {"tested_on": "A. niger 1133 m", "test": "Broth two-fold microdilution MIC (CLSI)", "assay_type": "cell-based, Aspergillus niger", "details": "A. niger 1133 m clinical isolate; RPMI 1640 pH 7.0, 35 °C, 48 h"}, "A. terreus 3 K [6]": {"tested_on": "A. terreus 3 K", "test": "Broth two-fold microdilution MIC (CLSI)", "assay_type": "cell-based", "details": "A. terreus 3 K; RPMI 1640 pH 7.0, 35 °C, 48 h"}, "A. terreus 497 [7]": {"tested_on": "A. terreus 497", "test": "Broth two-fold microdilution MIC (CLSI)", "assay_type": "cell-based", "details": "A. terreus 497 clinical isolate; RPMI 1640 pH 7.0, 35 °C, 48 h"}, "A. fumigatus VKM F-37": {"tested_on": "A. fumigatus VKM F-37", "test": "Broth two-fold microdilution MIC (CLSI)", "assay_type": "cell-based, Aspergillus fumigatus", "details": "A. fumigatus VKM F-37; RPMI 1640 pH 7.0, 35 °C, 48 h"}, "A. fumigatus 390 m": {"tested_on": "A. fumigatus 390 m", "test": "Broth two-fold microdilution MIC (CLSI)", "assay_type": "cell-based, Aspergillus fumigatus", "details": "A. fumigatus 390 m clinical isolate; RPMI 1640 pH 7.0, 35 °C, 48 h"}, "C. glabrata 1402": {"tested_on": "C. glabrata 1402", "test": "Broth microdilution MIC and MFC (CLSI)", "assay_type": "cell-based"}, "C. krusei 1447": {"tested_on": "C. krusei 1447", "test": "Broth microdilution MIC and MFC (CLSI)", "assay_type": "cell-based"}, "C. tropicalis 156": {"tested_on": "C. tropicalis 156", "test": "Broth microdilution MIC and MFC (CLSI)", "assay_type": "cell-based"}, "C. parapsilosis 571": {"tested_on": "C. parapsilosis 571", "test": "Broth microdilution MIC and MFC (CLSI)", "assay_type": "cell-based"}, "[8]": {"tested_on": "Cryptococcus neoformans 297", "test": "Broth microdilution MIC and MFC (CLSI)", "assay_type": "cell-based"}, "C. laurentii 325m": {"tested_on": "C. laurentii 325m", "test": "Broth microdilution MIC and MFC (CLSI)", "assay_type": "cell-based, Cr. laurentii"}, "[9]": {"tested_on": "isolates of Aspergillus spp.", "test": "Broth microdilution MIC, ranges over mould isolates", "assay_type": "cell-based", "details": "range over opportunistic and clinical isolates of Aspergillus spp. (Table 4)"}, "[10]": {"tested_on": "B16 (mouse melanoma cell line)", "test": "MTT cytotoxicity assay", "assay_type": "cell-based", "details": "72 h, three experiments, each in triplicate", "method": "(§1) Experiments for determining the cytotoxic activity of the compound in MTT assays were performed as previously described. The following tumor cell lines were used for this study: HCT-116 (colon cancer cell line), B16 (mouse melanoma cell line), K-562 (leukemia cell line), MDA-MB-231 (breast cancer line), and MCF-7 (breast cancer cell). Human postnatal fibroblasts were used as a normal cell line, and doxorubicin was used as a positive control. The cell lines were cultured in Dulbecco modified Eagle’s medium supplemented with 5% fetal calf serum, 2 mM Lglutamine, 100 U/mL penicillin, and […] streptomycin at 37 °C, 5% CO2 in a humidified atmosphere. Experiments were carried out on cells in the logarithmic phase of growth. The peptide was dissolved in DMSO as a 10 mM stock solution, followed by serial dilutions in water immediately before the experiment. Briefly, cells (5 × 10^3 in […] of culture medium) were plated in a 96-well plate and treated with 0.1% DMSO (blank control) or with […] of the peptide (0.10‒50 μM; each concentration in duplicate) for 72 h. After incubation with peptide, […] of aqueous MTT solution (3-(4,5-dimethylthiazol-2-yl)-2,5-diphenyltetrazolium bromide, 5 mg/mL) were added into each well for 2‒3 h. Formazan was dissolved in DMSO, and the absorbance at 570 nm was measured. The cytotoxicity at a given EmiA concentration was calculated as the percentage of absorbance in wells with peptide-treated cells compared to that of blank control cells (100%). The IC50 (50% growth inhibitory concentration) was defined as the concentration of EmiA that inhibited MTT conversion by 50%. All the experiments were repeated three times, each time in triplicate. EmiA was tested at a range of concentrations, 0.1‒10 μM."}, "[11]": {"tested_on": "HCT-116 (colon cancer cell line)", "test": "MTT cytotoxicity assay", "assay_type": "cell-based", "details": "72 h, three experiments, each in triplicate", "method": "as §1"}, "[12]": {"tested_on": "HPF (human postnatal fibroblasts, normal cell line)", "test": "MTT cytotoxicity assay", "assay_type": "cell-based", "method": "as §1"}, "[13]": {"tested_on": "MCF-7 (breast cancer cell)", "test": "MTT cytotoxicity assay", "assay_type": "cell-based", "details": "72 h, three experiments, each in triplicate", "method": "as §1"}, "[14]": {"tested_on": "MDA-MB-231 (breast cancer line)", "test": "MTT cytotoxicity assay", "assay_type": "cell-based", "details": "72 h, three experiments, each in triplicate", "method": "as §1"}, "[15]": {"tested_on": "K-562 (leukemia cell line)", "test": "MTT cytotoxicity assay", "assay_type": "cell-based", "details": "72 h, three experiments, each in triplicate"}, "Hela cell line": {"tested_on": "Hela cell line", "details": "previous study; cited from earlier work", "excerpt": "(§2) Accordingly, despite the high IC50 values for this molecule, fairly significant amounts of antibiotic are required to suppress the cell growth in vitro. The calculated therapeutic index value is sufficiently high due to a low cytotoxicity level for normal cells, which is an undeniable advantage over both pre-scorubicin and most other antitumor compou ..."}, "HepG2 cell line": {"tested_on": "HepG2 cell line", "details": "previous study; cited from earlier work", "excerpt": "as §2"}}}
{"substance": "Methyldecanoyl-MePro-AHMOD-Ala-Aib-Ile-Iva-βAla-Alaol-Glyol [EmiA, emericellipsin A, nonribosomal lipopeptaibol, major compound of E. alkalina VKPM F1428]", "values": [{"measurement": "Zone of Inhibition", "setting": "[1]", "value": "25 ± 0.21", "unit": "mm"}, {"measurement": "Zone of Inhibition", "setting": "A. terreus 3 K [2]", "value": "12 ± 0.25", "unit": "mm"}, {"measurement": "Zone of Inhibition", "setting": "A. terreus 497 [3]", "value": "14 ± 0.28", "unit": "mm"}, {"measurement": "inhibition zones", "setting": "[4]", "value": "20–25 mm"}, {"measurement": "inhibition zones", "setting": "[5]", "value": "15–19 mm"}, {"measurement": "Minimal Inhibitory Concentration (MIC)", "setting": "A. niger ATCC 16404", "value": 4, "unit": "µg/mL"}, {"measurement": "Minimal Inhibitory Concentration (MIC)", "setting": "A. niger 1133 m", "value": 4, "unit": "µg/mL"}, {"measurement": "Minimal Inhibitory Concentration (MIC)", "setting": "A. terreus 3 K [6]", "value": 0.5, "unit": "µg/mL"}, {"measurement": "Minimal Inhibitory Concentration (MIC)", "setting": "A. terreus 497 [7]", "value": 1, "unit": "µg/mL"}, {"measurement": "Minimal Inhibitory Concentration (MIC)", "setting": "A. fumigatus VKM F-37", "value": 2, "unit": "µg/mL"}, {"measurement": "Minimal Inhibitory Concentration (MIC)", "setting": "A. fumigatus 390 m", "value": 2, "unit": "µg/mL"}, {"measurement": "MFC", "setting": "C. glabrata 1402; C. glabrata 1402, lowest concentration causing 95% death", "value": 0.5, "unit": "µg/mL"}, {"measurement": "MIC", "setting": "C. glabrata 1402; C. glabrata 1402 clinical isolate, RPMI 1640 pH 7.0, 35 °C, 24 h", "value": 0.25, "unit": "µg/mL"}, {"measurement": "MFC", "setting": "C. krusei 1447; C. krusei 1447, lowest concentration causing 95% death", "value": 2, "unit": "µg/mL"}, {"measurement": "MIC", "setting": "C. krusei 1447; C. krusei 1447 clinical isolate, RPMI 1640 pH 7.0, 35 °C, 24 h", "value": 0.5, "unit": "µg/mL"}, {"measurement": "MFC", "setting": "C. tropicalis 156; C. tropicalis 156, lowest concentration causing 95% death", "value": 2, "unit": "µg/mL"}, {"measurement": "MIC", "setting": "C. tropicalis 156; C. tropicalis 156 clinical isolate, RPMI 1640 pH 7.0, 35 °C, 24 h", "value": 1, "unit": "µg/mL"}, {"measurement": "MFC", "setting": "C. parapsilosis 571; C. parapsilosis 571, lowest concentration causing 95% death", "value": 1, "unit": "µg/mL"}, {"measurement": "MIC", "setting": "C. parapsilosis 571; C. parapsilosis 571 clinical isolate, RPMI 1640 pH 7.0, 35 °C, 24 h", "value": 1, "unit": "µg/mL"}, {"measurement": "MFC", "setting": "[8]; Cryptococcus neoformans 297, lowest concentration causing 95% death", "value": 0.5, "unit": "µg/mL"}, {"measurement": "MIC", "setting": "[8]; Cryptococcus neoformans 297 clinical isolate, RPMI 1640 pH 7.0, 35 °C, 24 h", "value": 0.5, "unit": "µg/mL"}, {"measurement": "MIC", "setting": "C. laurentii 325m; C. laurentii 325m clinical isolate, RPMI 1640 pH 7.0, 35 °C, 24 h", "value": 0.5, "unit": "µg/mL"}, {"measurement": "MFC", "setting": "C. laurentii 325m; C. laurentii 325m, lowest concentration causing 95% death", "value": 0.5, "unit": "µg/mL"}, {"measurement": "MIC range", "setting": "[9]", "value": "0.5 to 4", "unit": "µg/mL"}, {"measurement": "IC50", "setting": "[10]", "value": "16 ± 2.08", "unit": "µM"}, {"measurement": "IC50", "setting": "[11]", "value": "2.3 ± 0.3", "unit": "µM"}, {"measurement": "IC50", "setting": "[12]; HPF normal fibroblasts, MTT, 72 h, three experiments, each in triplicate", "value": "11.5 ± 1.5", "unit": "µM"}, {"measurement": "antiproliferative activity inferior to doxorubicin", "setting": "[12]; interaction with PFH, relative to doxorubicin", "value": 60, "unit": "times"}, {"measurement": "IC50", "setting": "[13]", "value": "11 ± 1.2", "unit": "µM"}, {"measurement": "IC50", "setting": "[14]", "value": "8 ± 1.04", "unit": "µM"}, {"measurement": "IC50", "setting": "[15]", "value": "1 ± 0.14", "unit": "µM"}, {"measurement": "EC50", "setting": "Hela cell line", "value": "< 0.5", "unit": "µM"}, {"measurement": "EC50", "setting": "HepG2 cell line", "value": 2.8, "unit": "µM"}]}
